For one assay, the target named is T1, human ROCKα/ROCKII mix (Homo sapiens, UniProt O75116).
T1 construct: purchased Upstate Biotechnology 14-451
The assay can be described thus: Biochemical assay for ROCK (fluorescence polarization, ROCK IMAP Kit). For orientation: In fluorescence polarisation assays a small probe gives low polarisation when free and higher when bound to something large.

The target in the next assay is T2, PKC epsilon (Homo sapiens, UniProt Q02156).
T2 construct: purchased Invitrogen P2282
T2 sequence (Q02156 1-737): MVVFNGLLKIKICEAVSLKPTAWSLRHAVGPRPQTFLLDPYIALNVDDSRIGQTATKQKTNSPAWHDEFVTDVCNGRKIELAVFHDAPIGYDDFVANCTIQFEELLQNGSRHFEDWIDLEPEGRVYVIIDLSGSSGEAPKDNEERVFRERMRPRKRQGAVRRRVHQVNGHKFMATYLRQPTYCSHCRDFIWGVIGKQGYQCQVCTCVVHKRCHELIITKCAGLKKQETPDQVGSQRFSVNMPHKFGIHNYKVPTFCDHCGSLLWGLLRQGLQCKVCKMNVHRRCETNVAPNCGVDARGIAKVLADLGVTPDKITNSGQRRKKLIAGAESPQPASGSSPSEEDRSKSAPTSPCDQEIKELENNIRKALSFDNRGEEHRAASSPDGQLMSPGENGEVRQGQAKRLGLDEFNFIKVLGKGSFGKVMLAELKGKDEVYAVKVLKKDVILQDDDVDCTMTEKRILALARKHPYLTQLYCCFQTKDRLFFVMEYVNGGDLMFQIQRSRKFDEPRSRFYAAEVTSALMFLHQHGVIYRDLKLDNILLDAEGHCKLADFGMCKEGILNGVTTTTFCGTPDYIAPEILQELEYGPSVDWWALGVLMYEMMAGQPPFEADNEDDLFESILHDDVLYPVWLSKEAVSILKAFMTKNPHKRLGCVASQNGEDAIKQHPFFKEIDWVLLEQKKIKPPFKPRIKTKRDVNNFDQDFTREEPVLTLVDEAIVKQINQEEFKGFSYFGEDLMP
Briefly: Biochemical assay for PKC epsilon (fluorescence polarization, Protein Kinase C Assay Kit, Red). The settings on record: read-out: IC50 μM PKCε. In outline: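 PKC epsilon at 10 ng/ml final was preincubated 30 min at room temperature with compound in HEPES pH 7.4 with DTT and Triton X-100. ATP/protein substrate was then added in buffer with MgCl2 and CaCl2 for 80 min. The reaction was stopped with EDTA, phosphorylation was detected by fluorescence polarization with rhodamine tracer and anti-phosphoserine antibody, and IC50 values came from curve fits.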

Setting [1] is: Table 2, compounds of Formula XIII.
Where [2] appears, read: compounds of Formula XIV, Table 3.

Where two headings read alike, the source gives them in different places.

For orientation: IC50 means the point on the concentration scale where inhibition reaches its midpoint.

T1 sequence (O75116 11-552 limits assumed): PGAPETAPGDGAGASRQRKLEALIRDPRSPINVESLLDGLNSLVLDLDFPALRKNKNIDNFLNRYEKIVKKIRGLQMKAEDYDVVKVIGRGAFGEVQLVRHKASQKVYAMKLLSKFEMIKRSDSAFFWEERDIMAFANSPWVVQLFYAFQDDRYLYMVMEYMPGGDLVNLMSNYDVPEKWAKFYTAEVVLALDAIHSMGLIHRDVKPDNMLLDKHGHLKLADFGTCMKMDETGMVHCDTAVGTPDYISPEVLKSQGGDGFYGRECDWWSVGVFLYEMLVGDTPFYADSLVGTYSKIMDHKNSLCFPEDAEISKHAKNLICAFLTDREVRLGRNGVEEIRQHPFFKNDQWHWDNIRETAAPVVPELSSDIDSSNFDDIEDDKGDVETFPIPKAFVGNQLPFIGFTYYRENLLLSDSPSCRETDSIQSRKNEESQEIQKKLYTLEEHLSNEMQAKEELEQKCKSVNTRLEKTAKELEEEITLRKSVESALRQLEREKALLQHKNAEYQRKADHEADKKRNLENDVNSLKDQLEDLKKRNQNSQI

`NC(CNC(=O)c1cnccn1)c1ccc(C(=O)Nc2ccncc2)cc1` (centres unmarked) [Compound 108, Pyrazine-2-carboxylic acid {2-amino-2-[4-(pyridin-4-ylcarbamoyl)-phenyl]-ethyl}-amide]: the IC50 fell in the range of 0.5 to 5 µM against human ROCKα/ROCKII mix (setting [1]) and 5 to 50 µM on PKC epsilon (setting [1]).

As for `CN(CC(N)c1ccc(C(=O)Nc2ccncc2)cc1)C(=O)C1(c2ccc(F)c(Cl)c2)CC1` (centres unmarked) [Compound 506, 4-(1-Amino-2-{[1-(3-chloro-4-fluoro-phenyl)-cyclopropanecarbonyl]-methyl-amino}-ethyl)-N-pyridin-4-yl-benzamide], the IC50 was in the range of 0.5 to 5 µM on human ROCKα/ROCKII mix and 5 to 50 µM at PKC epsilon.

Regarding `NC(CNC(=O)c1ccccn1)c1ccc(C(=O)Nc2ccncc2)cc1` (centres unmarked) [Compound 105, Pyridine-2-carboxylic acid {2-amino-2-[4-(pyridin-4-ylcarbamoyl)-phenyl]-ethyl}-amide], the values for the 50% inhibitory concentration (IC50) on human ROCKα/ROCKII mix (setting [1]) and at PKC epsilon (setting [1]) were 0.5 to 5 µM and 5 to 50 µM, respectively.

Turning to `NC(c1ccc(C(=O)Nc2ccncc2)cc1)C1CCCN1C(=O)C1(c2ccc(Cl)c(Cl)c2)CCC1` (centres unmarked) [Compound 595, 4-(Amino-{1-[1-(3,4-dichloro-phenyl)-cyclobutanecarbonyl]-pyrrolidin-2-yl}-methyl)-N-pyridin-4-yl-benzamide], the 50% inhibitory concentration (IC50) against human ROCKα/ROCKII mix and at PKC epsilon was 0.5 to 5 µM throughout.

On to `COc1ccc(CC(=O)N(C)CC(N)c2ccc(C(=O)Nc3ccncc3)cc2)cc1` (centres unmarked) [Compound 427, 4-(1-Amino-2-{[2-(4-methoxy-phenyl)-acetyl]-methyl-amino}-ethyl)-N-pyridin-4-yl-benzamide], for which the concentration for half-maximal inhibition (IC50) lay within 0.05 to 0.5 µM against human ROCKα/ROCKII mix and 5 to 50 µM at PKC epsilon.

Regarding `Cc1ccc(CCNC(=O)CC(N)c2ccc(C(=O)Nc3ccncc3)cc2)cc1` (centres unmarked) [Compound 284, 4-[1-Amino-2-(2-p-tolyl-ethyl-carbamoyl)-ethyl]-N-pyridin-4-yl-benzamide], the figures for the IC50 on human ROCKα/ROCKII mix (setting [2]) and at PKC epsilon (setting [2]) were 0.05 to 0.5 µM and 5 to 50 µM, respectively.

In the case of `CC(C)(C(=O)NCC(N)c1ccc(C(=O)Nc2ccncc2)cc1)c1ccc(Cl)cc1F` (centres unmarked) [Compound 388, 4-{1-Amino-2-[2-(4-chloro-2-fluoro-phenyl)-2-methyl-propionylamino]-ethyl}-N-pyridin-4-yl-benzamide], the half-inhibitory concentration (IC50) was 0.05 to 0.5 µM at human ROCKα/ROCKII mix (setting [1]) and under 0.05 µM at PKC epsilon (setting [1]).

Regarding `CN(CC(N)c1ccc(C(=O)Nc2ccncc2)cc1)C(=O)C1(c2ccc(Cl)c(Cl)c2)CC1` (centres unmarked) [Compound 493, 4-(1-Amino-2-{[1-(3,4-dichloro-phenyl)-cyclopropanecarbonyl]-methyl-amino}-ethyl)-N-pyridin-4-yl-benzamide], the IC50 against human ROCKα/ROCKII mix lay within 0.5 to 5 µM; on PKC epsilon, 5 to 50 µM.

On to `NC(CNC(=O)c1c[nH]cn1)c1ccc(C(=O)Nc2ccncc2)cc1` (centres unmarked) [Compound 122, 1H-Imidazole-4-carboxylic acid {2-amino-2-[4-(pyridin-4-ylcarbamoyl)-phenyl]-ethyl}-amide], for which the IC50 on human ROCKα/ROCKII mix (setting [1]) was in the range of 0.5 to 5 µM; at PKC epsilon (setting [1]) it was 5 to 50 µM.

Turning to `Cc1ccccc1CC(=O)N(C)CC(N)c1ccc(C(=O)Nc2ccncc2)cc1` (centres unmarked) [Compound 422, 4-{1-Amino-2-[methyl-(2-o-tolyl-acetyl)-amino]-ethyl}-N-pyridin-4-yl-benzamide], the IC50 is 0.5 to 5 µM against human ROCKα/ROCKII mix and 5 to 50 µM at PKC epsilon.

In the case of `NC(CNC(=O)c1ccc(Oc2ccccc2)cc1)c1ccc(C(=O)Nc2ccncc2)cc1` (centres unmarked) [Compound 78, 4-[1-amino-2-(4-phenoxy-benzoylamino)-ethyl]-N-pyridin-4-yl-benzamide], the IC50 is 0.5 to 5 µM against human ROCKα/ROCKII mix (setting [1]) and 5 to 50 µM at PKC epsilon (setting [1]).

As to `Cc1ccc(CN2CCC(NC(=O)CC(N)c3ccc(C(=O)Nc4ccncc4)cc3)CC2)s1` (centres unmarked) [Compound 202], the results for the half-inhibitory concentration (IC50) at human ROCKα/ROCKII mix (setting [2]) and on PKC epsilon (setting [2]) were 0.05 to 0.5 µM and 0.5 to 5 µM, respectively.

Take `NC(CNC(=O)c1cccc(Oc2ccccc2)c1)c1ccc(C(=O)Nc2ccncc2)cc1` (centres unmarked) [Compound 77, 4-[1-amino-2-(3-phenoxy-benzoylamino)-ethyl]-N-pyridin-4-yl-benzamide]: the IC50 on human ROCKα/ROCKII mix (setting [1]) is 0.5 to 5 µM; on PKC epsilon (setting [1]), 5 to 50 µM.

In the case of `NC(c1ccc(C(=O)Nc2ccncc2)cc1)C1CCCN1C(=O)C1CCSc2ccc(F)cc21` (centres unmarked) [Compound 619, 4-{Amino[1-(6-fluoro-thiochroman-4-carbonyl)-pyrrolidin-2-yl]-methyl}-N-pyridin-4-yl-benzamide], the IC50 on human ROCKα/ROCKII mix and at PKC epsilon was 0.5 to 5 µM throughout.

Regarding “4-[1-amino-2-(2-morpholin- 4-yl-ethylcarbamoyl)-ethyl]- N-pyridin-4-yl-benzamide [Compound 177]”, the IC50 against human ROCKα/ROCKII mix (setting [2]) lay within 0.05 to 0.5 µM; on PKC epsilon (setting [2]) it was 5 to 50 µM.

`CC(C)(Cc1ccc(F)cc1)NC(=O)CC(N)c1ccc(C(=O)Nc2ccncc2)cc1` (centres unmarked) [Compound 308, 4-{1-amino-2-[2-(4-fluoro-phenyl)-1,1-dimethyl-ethylcarbamoyl]-ethyl}-N-pyridin-4-yl-benzamide]: the IC50 against human ROCKα/ROCKII mix (setting [2]) and at PKC epsilon (setting [2]) was 0.05 to 0.5 µM each time.

On to `COC(=O)C(C)NC(=O)CC(N)c1ccc(C(=O)Nc2ccncc2)cc1` (centres unmarked) [Compound 182], for which the figures for the IC50 at human ROCKα/ROCKII mix (setting [2]) and at PKC epsilon (setting [2]) were 0.05 to 0.5 µM and 0.5 to 5 µM, respectively.

With `CN(C)CCNC(=O)CC(N)c1ccc(C(=O)Nc2ccncc2)cc1` (centres unmarked) [Compound 174, 4-[1-amino-2-(2-dimethylamino-ethylcarbamoyl)-ethyl]-N-pyridin-4-yl-benzamide], the IC50 on human ROCKα/ROCKII mix (setting [2]) is 0.05 to 0.5 µM; on PKC epsilon (setting [2]), 0.5 to 5 µM.

Regarding `NC(CC(=O)NCc1cccc(F)c1)c1ccc(C(=O)Nc2ccncc2)cc1` (centres unmarked) [Compound 257, 4-[1-Amino-2-(3-fluoro-benzylcarbamoyl)-ethyl]-N-pyridin-4-yl-benzamide], the IC50 is 0.05 to 0.5 µM at human ROCKα/ROCKII mix (setting [2]) and 0.5 to 5 µM at PKC epsilon (setting [2]).

Take `NC(CC(=O)NC(c1ccccc1)c1ccc(Cl)cc1)c1ccc(C(=O)Nc2ccncc2)cc1` (centres unmarked) [Compound 255, 4-(1-Amino-2-{[(4-chloro-phenyl)-phenyl-methyl]-carbamoyl}-ethyl)-N-pyridin-4-yl-benzamide]: the IC50 was 0.05 to 0.5 µM against human ROCKα/ROCKII mix (setting [2]) and 0.5 to 5 µM at PKC epsilon (setting [2]).

Take `NC(c1ccc(C(=O)Nc2ccncc2)cc1)C1CCCN1C(=O)C1(c2cccs2)CC1` (centres unmarked) [Compound 549, 4-{Amino-[1-(1-thiophen-2-yl-cyclopropanecarbonyl)-pyrrolidin-2-yl]-methyl}-N-pyridin-4-yl-benzamide]: the IC50 at human ROCKα/ROCKII mix fell in the range of 0.5 to 5 µM; on PKC epsilon, 5 to 50 µM.

Consider `NC(CC(=O)Nc1ccccc1)c1ccc(C(=O)Nc2ccncc2)cc1` (centres unmarked) [Compound 316], for which the IC50 against human ROCKα/ROCKII mix (setting [2]) fell in the range of 0.05 to 0.5 µM; at PKC epsilon (setting [2]) it was 0.5 to 5 µM.

As to `NC(CNC(=O)Cc1csc(Nc2ccccc2)n1)c1ccc(C(=O)Nc2ccncc2)cc1` (centres unmarked) [Compound 155, 4-{1-Amino-2-[2-(2-phenylamino-thiazol-4-yl)-acetylamino]-ethyl}-N-pyridin-4-yl-benzamide], the IC50 against human ROCKα/ROCKII mix (setting [1]) and on PKC epsilon (setting [1]) was 0.5 to 5 µM each time.

As to `CC[C@@H](NC(=O)CC(N)c1ccc(C(=O)Nc2ccncc2)cc1)c1ccccc1` (stereo partly drawn) [Compound 216, 4-[1-Amino-2-(1-(R)-phenyl-propylcarbamoyl)-ethyl]-N-pyridin-4-yl-benzamide], the figures for the IC50 on human ROCKα/ROCKII mix (setting [2]) and on PKC epsilon (setting [2]) were 0.05 to 0.5 µM and 0.5 to 5 µM, respectively.

As to `NC(CNC(=O)C1CCC1)c1ccc(C(=O)Nc2ccncc2)cc1` (centres unmarked) [Compound 41, 4-[1-Amino-2-(cyclobutanecarbonyl-amino)-ethyl]-N-pyridin-4-yl-benzamide], the IC50 on human ROCKα/ROCKII mix (setting [1]) and at PKC epsilon (setting [1]) was 0.5 to 5 µM throughout.

These data come from patent publication US20100168102A9, “Amide Derivatives as Kinase Inhibitors” (Devgen NV, priority 2005, published 2010).
